Where two headings read alike, the source gives them in different places.
Test: Single ascending oral dose study in healthy volunteers: plasma pharmacokinetics
Type: in vivo, human
Conditions: plasma, oral; for AUC(0-t) / AUC(0-inf) / Cmax / half-life / MRT / Tmax / Vd/F / concentration at 6 h / concentration at 12 h / concentration at 24 h / concentration at 48 h / concentration at 72 h: human; for concentration at 12 h: 12 Hours Postdose; for concentration at 24 h: 24 Hours Postdose; for concentration at 48 h: 48 Hours Postdose; for concentration at 72 h: 72 Hours Postdose
Description: This example describes the first-in-human study of Compound I. Based on its mechanism of action, Compound I may offer a targeted therapy for patients with DCM caused by genetic or nongenetic mechanisms. The study was a randomized, double-blind, placebo-controlled, sequential group, single-ascending (oral) close study in healthy subjects aged 18-55 years. Eight dosing cohorts, each comprising eight healthy subjects, were enrolled. Within each cohort, subjects were randomized 6:2 to Compound I:placebo.
Subjects were resident at the clinical site for up to 5 days and 4 nights, from Day −1 (the day before dosing) to Day 4, and received a single dose of Compound I or placebo on Day 1. ECG telemetry was initiated 1 hour preclose and continued through 48 hours postclose (Day 3). Any subject with a preclose resting HR≥80 beats per minute was considered ineligible and not treated. […] Subjects returned for a safety follow-up visit 7 days (±1 day) after dosing.
All randomized study subjects received either Compound I or matching placebo as a single oral dose after a fasting period of at least 6 hours. Compound I drug substance is a crystalline, free-base, synthetic molecule with a molecular weight of 435.4 g/mol.
Compound I was provided as a powder for oral suspension. Placebo was provided as calcium carbonate powder. Both treatments were closed orally as a suspension. The suspension was made using Ora-Plus® suspending vehicle (Perrigo) and a cherry syrup flavoring vehicle (Humco), mixed 50% to 50%. The suspension was followed by approximately 100 mL water. The suspension was made up within 14 days from the time in which it was closed which was consistent with the stability data on the suspension. The suspension was made up so the volume administered to the subjects who received Compound I was the same at 20 mL.
Each subject received a close according to the cohort in which they were enrolled. Cohorts were enrolled sequentially, with each cohort receiving an escalated dose of Compound I. The closes administered were 3 mg, 10 mg, 25 mg, 50 mg, 100 mg, 175 mg, 350 mg, and 525 mg, respectively.
The concentrations of Compound I in human plasma and urine were quantitated by high performance liquid chromatography with tandem mass spectrometric detection (LC MS/MS) (Biological sample analysis study report Alturas AD17-726). Plasma samples were extracted by protein precipitation with acetonitrile containing internal standard MYK-5654. The calibration curves were linear over concentration range of 0.500 to 1000 ng/mL with a lower limit of quantification (LLOQ) of 0.500 ng/mL.
The PK Population included all subjects who received Compound I. Blood samples were collected for PK assessments. The actual timing of the samples may have been modified and/or up to an additional 2 samples may have been requested by the SRC after review of the data from previous cohorts. It was important that PK sampling occurred as closely as possible to the scheduled time (±10%). Both blood and urine samples were used for PK assessments.
In addition, for subjects who received placebo, a single plasma sample near the predicted tmax of Compound I was evaluated to confirm the lack of circulating Compound I. Plasma concentration data for Compound I was summarized using descriptive statistics, including mean, standard deviation (SD), median, minimum, and maximum values, and percent coefficient of variation. Other PK parameters included (but were not limited to) Cmax, tmax, AUC, t1/2, and MRT. Additionally, the apparent terminal-phase terminal half-life was calculated. The close proportionality of AUC and Cmax was explored.

[1] = 350 mg + 525 mg, read-out: Plasma concentration, Geometric Mean
[2] = 350 mg + 525 mg, read-out: Plasma concentration, Mean
[3] = 350 mg + 525 mg, read-out: Plasma concentration, Median

Compound: Cn1cc(S(=O)(=O)[C@@](C)(F)C2CCN(C(=O)Nc3ccon3)CC2)c(C(F)F)n1 [Compound I, (R)-4-(1-((3-(difluoromethyl)-1-methyl-1H-pyrazol-4-yl)sulfonyl)-1-fluoroethyl)-N-(isoxazol-3-yl)piperidine-1-carboxamide]
- AUC(0-t) (525 mg, read-out: AUC0-24, Geometric Mean): 37500 ng·h/mL
- AUC(0-t) (525 mg, read-out: AUC0-24, Mean): 38500 ng·h/mL
- AUC(0-t) (525 mg, read-out: AUC0-24, Median): 38200 ng·h/mL
- AUC(0-t) (525 mg, read-out: AUC0-48, Geometric Mean): 57000 ng·h/mL
- AUC(0-t) (525 mg, read-out: AUC0-48, Mean): 58900 ng·h/mL
- AUC(0-t) (525 mg, read-out: AUC0-48, Median): 57400 ng·h/mL
- AUC(0-t) (525 mg, read-out: AUC0-last, Geometric Mean): 68100 ng·h/mL
- AUC(0-t) (525 mg, read-out: AUC0-last, Mean): 71700 ng·h/mL
- AUC(0-t) (525 mg, read-out: AUC0-last, Median): 68600 ng·h/mL
- AUC(0-inf) (525 mg, read-out: AUC0-∞, Geometric Mean): 68500 ng·h/mL
- AUC(0-inf) (525 mg, read-out: AUC0-∞, Mean): 72100 ng·h/mL
- AUC(0-inf) (525 mg, read-out: AUC0-∞, Median): 68800 ng·h/mL
- Cmax (525 mg, read-out: Cmax, Geometric Mean): 2290 ng/mL
- Cmax (525 mg, read-out: Cmax, Mean): 2350 ng/mL
- Cmax (525 mg, read-out: Cmax, Median): 2240 ng/mL
- half-life (525 mg, read-out: Half-Life Lambda Z, Geometric Mean (converted)): 882 min
- half-life (525 mg, read-out: Half-Life Lambda Z, Mean (converted)): 904 min
- half-life (525 mg, read-out: Half-Life Lambda Z, Median (converted)): 826 min
- MRT (525 mg, read-out: Mean Residence Time, Geometric Mean): 25.4 h
- MRT (525 mg, read-out: Mean Residence Time, Mean): 25.8 h
- MRT (525 mg, read-out: Mean Residence Time, Median): 25 h
- Tmax (525 mg, read-out: Tmax, Geometric Mean): 4.94 h
- Tmax (525 mg, read-out: Tmax, Mean): 4.97 h
- Tmax (525 mg, read-out: Tmax, Median): 5 h
- Vd/F (525 mg, read-out: Vz/F, Geometric Mean): 162 L
- Vd/F (525 mg, read-out: Vz/F, Mean): 166 L
- Vd/F (525 mg, read-out: Vz/F, Median): 171 L
- concentration at 6 h (6 Hours Postdose, 350 mg + 525 mg, read-out: Plasma concentration, Geometric Mean): 2380 ng/mL
- concentration at 6 h (6 Hours Postdose, 350 mg + 525 mg, read-out: Plasma concentration, Mean): 2440 ng/mL
- concentration at 6 h (6 Hours Postdose, 350 mg + 525 mg, read-out: Plasma concentration, Median): 2350 ng/mL
- concentration at 12 h [1]: 1930 ng/mL
- concentration at 12 h [2]: 1990 ng/mL
- concentration at 12 h [3]: 1860 ng/mL
- concentration at 24 h [1]: 1230 ng/mL
- concentration at 24 h [2]: 1280 ng/mL
- concentration at 24 h [3]: 1210 ng/mL
- concentration at 48 h [1]: 372 ng/mL
- concentration at 48 h [2]: 419 ng/mL
- concentration at 48 h [3]: 415 ng/mL
- concentration at 72 h [1]: 108 ng/mL
- concentration at 72 h [2]: 137 ng/mL
- concentration at 72 h [3]: 122 ng/mL
- concentration at 6 h (6 hours post-dose, bin 0-1000 ng/mL (n = 29), read-out: Plasma Concentration, Mean): 334 ng/mL
- concentration at 6 h (6 hours post-dose, bin 0-1000 ng/mL (n = 29), read-out: Plasma Concentration, Median): 286 ng/mL
- concentration at 6 h (6 hours post-dose, bin 1001-2000 ng/mL (n = 9), read-out: Plasma Concentration, Mean): 1360 ng/mL
- concentration at 6 h (6 hours post-dose, bin 1001-2000 ng/mL (n = 9), read-out: Plasma Concentration, Median): 1270 ng/mL
- concentration at 6 h (6 hours post-dose, bin >2000 ng/mL (n = 10), read-out: Plasma Concentration, Mean): 2590 ng/mL
- concentration at 6 h (6 hours post-dose, bin >2000 ng/mL (n = 10), read-out: Plasma Concentration, Median): 2420 ng/mL
- half-life (across the dose groups, read-out: terminal t1/2): 660 to 960 min
- half-life (combined 350 and 525 mg group, read-out: t1/2, range): 660 to 1320 min
- Tmax (combined 350 and 525 mg group, read-out: tmax, range): 3 to 6 h
- Vd/F (doses ranging from 3 mg to 525 mg, read-out: volume of distribution (Vz/F)): 58 to 166 L
- Vd/F (doses up to 175 mg, read-out: mean apparent volume of distribution (Vz/F)): ~78 L
- Tmax (healthy volunteers, read-out: Tmax): 4 to 6 h
- half-life (healthy volunteers, read-out: terminal t1/2 (half-life) (converted)): ~900 min
- Vd (1-compartmental model analysis of in vivo data in human): 0.965 L/kg
- clearance (1-compartmental model analysis of in vivo data in human, read-out: CL (Human)): 0.949 mL/min/kg
